Assays:
Aphids [1] = experiment: Controlled environment, 2% glyceride emulsion: aphid survival on apple; type: in vivo; conditions: ‘Delicious’ apple
Experimental: (§1) Plant materials used for tests were either branches obtained from the fields or trees grew in pots in a green house.
(§2) Plants growing in pot were inoculated with pests or pathogen and sprayed with 2% glyceride emulsions. Death rate of pests or number of lesions was evaluated one to three weeks after treatment.
(§3) Since mineral oil has been widely used for insect pest and disease control in agriculture (Taschenberg, 1952; Walsh et al., 2000), it was included in the experiments for comparison.

Mites [2] = experiment: Controlled environment, 2% glyceride emulsion: mite survival on apple; type: in vivo, European red mite (ERM); conditions: ‘Delicious’ apple
Text: as §1
(§4) To test the effects of different glycerides on over winter pests such as San Jose Scale (SJS) or European red mite (ERM) on pome or stone fruit trees, stems from dormant ‘Delicious’ apple trees and ‘Feng Huang’ peach trees infested with SJS were collected and dipped in 2% of different glyceride emulsions with the untreated served as control. Stems were then trimmed to 25 cm long by removing from the base, put in a plate with the base submerging in 1-cm thick water, and incubated at 23 degree C for 2 weeks in a chamber. After incubation, 15 overwintering SJS (‘Black-cap’ stage of first instar) per stem were examined microscopically and assessed for viability. Apple or peach stems containing ERM eggs were collected in late dormant and treated as described above and incubated at 28 degree C., 80% relative humidity, and 16-hour light/8-hour dark cycle. Mite viability was evaluated by the following method. Stem segment were impaled onto insect pins that had been driven through 10×12 cm white posterboard containing a thin coat of sticky gel to trip newly hatched mites and facilitate their counting. Eggs were examined every 2 days until hatch was complete. […]

Psylla = experiment: Controlled environment, 2% glyceride emulsion: psylla survival on apple; type: in vivo; conditions: ‘Delicious’ apple
Experimental: as §1, §2, §3

Whitefly [3] = experiment: Controlled environment, 2% glyceride emulsion: whitefly survival on apple; type: in vivo; conditions: ‘Delicious’ apple
Experimental: as §1, §2, §3

SJS = experiment: Controlled environment, 2% glyceride emulsion: SJS survival on apple; type: in vivo, San Jose Scale (SJS); conditions: ‘Delicious’ apple
Text: as §1, §4

Aphids [4] = experiment: Controlled environment, 2% glyceride emulsion: aphid survival on orange; type: in vivo; conditions: ‘Qi Cheng’ orange
Experimental: as §1, §2, §3

Mite = experiment: Controlled environment, 2% glyceride emulsion: mite survival on orange; type: in vivo; conditions: ‘Qi Cheng’ orange
Experimental: as §1, §2, §3

Aphids [5] = experiment: Controlled environment, 2% glyceride emulsion: aphid survival on cotton; type: in vivo
Experimental: as §1, §2, §3

Whitefly [6] = experiment: Controlled environment, 2% glyceride emulsion: whitefly survival on cotton; type: in vivo
Experimental: as §1, §2, §3

Aphids [7] = experiment: Controlled environment, 2% glyceride emulsion: aphid survival on wheat; type: in vivo
Experimental: as §1, §2, §3

Mites [8] = experiment: Controlled environment, 2% glyceride emulsion: mite survival on wheat; type: in vivo
Experimental: as §1, §2, §3

Aphids [9] = experiment: Controlled environment, 2% glyceride emulsion: aphid survival on tomato; type: in vivo
Experimental: as §1, §2, §3

Mites [10] = experiment: Controlled environment, 2% glyceride emulsion: mite survival on tomato; type: in vivo
Experimental: as §1, §2, §3

Aphids [11] = experiment: Controlled environment, 2% glyceride emulsion: aphid survival on cabbage; type: in vivo
Experimental: as §1, §2, §3

Whitefly [12] = experiment: Controlled environment, 2% glyceride emulsion: whitefly survival on cabbage; type: in vivo
Experimental: as §1, §2, §3

Scab = experiment: Controlled environment, 2% glyceride: scab severity on apple; type: in vivo; conditions: ‘Delicious’ apple
Experimental: as §1, §2, §3

Powdery mildew [13] = experiment: Controlled environment, 2% glyceride: powdery mildew severity on apple; type: in vivo; conditions: ‘Delicious’ apple
Experimental: as §1, §2, §3

Bacterial canker = experiment: Controlled environment, 2% glyceride: bacterial canker severity on peach; type: in vivo; conditions: ‘Feng Hung’ peach
Experimental: as §1, §2, §3

Powdery mildew [14] = experiment: Controlled environment, 2% glyceride: powdery mildew severity on peach; type: in vivo; conditions: ‘Feng Hung’ peach
Experimental: as §1, §2, §3

Leaf spot = experiment: Controlled environment, 2% glyceride: leaf spot severity on grape; type: in vivo; conditions: ‘Long Yan’ grape
Experimental: as §1, §2, §3

Powdery mildew [15] = experiment: Controlled environment, 2% glyceride: powdery mildew severity on grape; type: in vivo; conditions: ‘Long Yan’ grape
Experimental: as §1, §2, §3

Brown rot = experiment: Controlled environment, 2% glyceride: brown rot severity on orange; type: in vivo; conditions: ‘Qi Cheng’ orange
Experimental: as §1, §2, §3

Psorosis = experiment: Controlled environment, 2% glyceride: psorosis severity on orange; type: in vivo; conditions: ‘Qi Cheng’ orange
Experimental: as §1, §2, §3

Fusarium wilt [16] = experiment: Controlled environment, 2% glyceride emulsion: Fusarium wilt severity on cotton; type: in vivo
Experimental: as §1, §2, §3

Verticillium wilt [17] = experiment: Controlled environment, 2% glyceride emulsion: Verticillium wilt severity on cotton; type: in vivo
Experimental: as §1, §2, §3

Barley strip = experiment: Controlled environment, 2% glyceride emulsion: Barley strip severity on wheat; type: in vivo
Experimental: as §1, §2, §3

leaf scald = experiment: Controlled environment, 2% glyceride emulsion: leaf scald severity on wheat; type: in vivo
Experimental: as §1, §2, §3

Leaf-spot = experiment: Controlled environment, 2% glyceride emulsion: leaf-spot severity on cabbage; type: in vivo
Experimental: as §1, §2, §3

Verticillium wilt [18] = experiment: Controlled environment, 2% glyceride emulsion: Verticillium wilt severity on cabbage; type: in vivo
Experimental: as §1, §2, §3

Bacterial ring rot = experiment: Controlled environment, 2% glyceride emulsion: bacterial ring rot severity on potato; type: in vivo
Experimental: as §1, §2, §3

Verticillium wilt [19] = experiment: Controlled environment, 2% glyceride emulsion: Verticillium wilt severity on potato; type: in vivo
Experimental: as §1, §2, §3

Bacterial Spot = experiment: Controlled environment, 2% glyceride emulsion: bacterial spot severity in tomatoes; type: in vivo
Experimental: as §1, §2, §3

Verticillium wilt [20] = experiment: Controlled environment, 2% glyceride emulsion: Verticillium wilt severity in tomatoes; type: in vivo
Experimental: as §1, §2, §3

Fusarium wilt [21] = experiment: Controlled environment, 2% glyceride emulsion: Fusarium wilt severity in tomatoes; type: in vivo
Experimental: as §1, §2, §3

TMV (I) = experiment: Controlled environment, 2% glyceride emulsion: TMV (I) severity in tomatoes; type: in vivo, tobacco mosaic virus (TMV I)
Experimental: as §1, §2, §3

TMV (II) = experiment: Controlled environment, 2% glyceride emulsion: TMV (II) severity in tomatoes; type: in vivo, tomato mosaic virus (TMV II)
Experimental: as §1, §2, §3

TICV = experiment: Controlled environment, 2% glyceride emulsion: TICV severity in tomatoes; type: in vivo, tomato infectious chlorosis virus (TICV)
Experimental: as §1, §2, §3

TSWV = experiment: Controlled environment, 2% glyceride emulsion: TSWV severity in tomatoes; type: in vivo, tomato spotted wilt virus (TSWV)
Experimental: as §1, §2, §3

Structure (SMILES): CCCCCCCCCCCC(=O)OCC(O)CO (centres unmarked) [Monolaurin]
- pest survival (%), Apples, Aphids (Aphids [1]): 34e %
- pest survival (%), Apples, Mites (Mites [2]): 0g %
- pest survival (%), Apples, Psylla (Psylla): 35e %
- pest survival (%), Apples, Whitefly (Whitefly [3]): 31e %
- pest survival (%), Apples, SJS (SJS): 0f %
- pest survival (%), Oranges, Aphids (Aphids [4]): 31e %
- pest survival (%), Oranges, Mite (Mite): 39e %
- pest survival (%), Cotton, Aphids (Aphids [5]): 30e %
- pest survival (%), Cotton, Whitefly (Whitefly [6]): 31f %
- pest survival (%), Wheat, Aphids (Aphids [7]): 21e %
- pest survival (%), Wheat, Mites (Mites [8]): 33e %
- pest survival (%), Tomato, Aphids (Aphids [9]): 27e %
- pest survival (%), Tomato, Mites (Mites [10]): 34e %
- pest survival (%), Cabbage, Aphids (Aphids [11]): 17e %
- pest survival (%), Cabbage, Whitefly (Whitefly [12]): 28f %
- disease severity, Apples, Scab (Scab): 14f^z % of untreated control
- disease severity, Apples, Powdery mildew (Powdery mildew [13]): 18f % of untreated control
- disease severity, Peaches, Bacterial canker (Bacterial canker): 24f % of untreated control
- disease severity, Peaches, Powdery mildew (Powdery mildew [14]): 13g % of untreated control
- disease severity, Grapes, Leaf spot (Leaf spot): 37f % of untreated control
- disease severity, Grapes, Powdery mildew (Powdery mildew [15]): 16g % of untreated control
- disease severity, Oranges, Brown rot (Brown rot): 34e % of untreated control
- disease severity, Oranges, Psorosis (Psorosis): 32d % of untreated control
- disease severity, Cotton, Fusarium wilt (Fusarium wilt [16]): 43e^z % of untreated control
- disease severity, Cotton, Verticillium wilt (Verticillium wilt [17]): 48d % of untreated control
- disease severity, Wheat, Barley strip (Barley strip): 19f % of untreated control
- disease severity, Wheat, leaf scald (leaf scald): 32f % of untreated control
- disease severity, Cabbage, Leaf-spot (Leaf-spot): 23f % of untreated control
- disease severity, Cabbage, Verticillium wilt (Verticillium wilt [18]): 46de % of untreated control
- disease severity, Potato, Bacterial ring rot (Bacterial ring rot): 47e % of untreated control
- disease severity, Potato, Verticillium wilt (Verticillium wilt [19]): 37e % of untreated control
- disease severity, Bacterial Spot (Bacterial Spot): 18f^z % of untreated control
- disease severity, Verticillium wilt (Verticillium wilt [20]): 26f % of untreated control
- disease severity, Fusarium wilt (Fusarium wilt [21]): 29f % of untreated control
- disease severity, TMV (I) (TMV (I)): 37e % of untreated control
- disease severity, TMV (II) (TMV (II)): 43d % of untreated control
- disease severity, TICV (TICV): 33f % of untreated control
- disease severity, TSWV (TSWV): 27e % of untreated control

— patent US20020010157A1, “Composition and method for controlling insect pests and diseases on plants” (priority 2000, published 2002)
